Columns and labels:
[1] = tested on: hypothalamic neurons; assay: Microelectrode array (MEA) recording of organotypic hypothalamic slices; format: cell-based, Leprdb (db/db diabetic) mice; conditions: 500 nM; db/db male and female mice
Procedure: We determined whether ex vivo organotypic culture of hypothalamic slices (200 μm in thickness) obtained from brains of C57BL/6J (WT) mice and age matched Leprdb (db/db diabetic) mice were electrically active and capable of firing trains of action potentials using Maestro microelectrode arrays (MEA) performed with MaestroPro MEA system from Axion Biosystems, GA.
MEA measurements were carried out using a 48-well Microelectrode array (MEA) plate (M768-tMEA-48W) from Axion Biosystems, GA. Each well of the MEA plate, contained a 4×4 grid of […] circular nanoporous PEDOT electrodes embedded in the cell culture substrate, with a pole-to-pole electrode spacing of […]. In preparation for seeding hypothalamic slices, the wells were treated with 0.1% polyethylenimine (PEI) in sodium borate buffer, pH 8.4. Wells were then pre-coated in laminin (6 μg/mL) and the hypothalamic slices (200 μm in thickness) were plated on the electrode grid. […]
Extracellular recordings of spontaneous action potentials were performed in culture medium at 37° C. using the standard neural setting of the MaestroPro MEA system and AxIS software version 1.5.1.12. […] Recorded spike number per electrode were averaged after disregarding noisy electrodes from analysis. […]
Using the MEA system, population level electrical activity was recorded from different hypothalamic neurons. […]

[2] = tested on: RPE and PRC; assay: Subretinal injection of OAβ in WT mice +/- ELVs (RPE flat mount, OCT, qPCR, Western blot); format: in vivo; conditions: for OAβ-activated senescence program (p16INK4a, MMP1, p53, p21, p27, Il-6, SASP secretome) followed by RPE and PRC demise: summary of mouse and human RPE data
Excerpt: (A) In vivo experimental design: 6-month-old C57BL/6J WT mice were divided into 7 groups (n=12/group): non-injected, PBS, OAβ only, OAβ+ELV-N-32, OAβ+ELV-N-34, ELV-N-32 only and ELV-N-34 only. On day 3, mRNA were isolated for Real-Time PCR. On day 7, mice were subjected to OCT and then eyes enucleated and processed for whole mount RPE staining and Western blots. (B) Whole flat mount of RPE with tight junction marker, Zonula occludens-1 (ZO-1) antibody. OAβ disrupted RPE morphology. (C) OAβ effects on retina and RPE by OCT. (D) Thickness of PRC layer was thinner in OAβ injected group. (E) RPE gene expression after Oaβ (1-42) injection and treatment with ELVs. (E-G) Gene expression in the same functional group were plotted. Senescence- and AMD-related genes (E), and collagenases, gelatinase, stromelysins and others matrix metalloproteinases (MMP) (F) and autophagy (G). (H) p16INK4a, a key marker for senescence, western blots of RPE. (I) Retina apoptosis gene expression after OAβ (1-42) injection and treatment with ELVs. (*P<0.05, student t-test).
ELVs restore RPE morphology and reduce gene expression after subretinal injection of OAβ in WT mice. (A) Mice were divided into 7 groups: non-injected, PBS, OAβ only, OAβ+ELV-N-32, OAβ+ELV-N-34, ELV-N-32 only and ELV-N-34 only. On day 3, mRNA were isolated for RT-PCR. On day 7, mice were subjected to OCT and then eyes were enucleated and processed to whole mount RPE staining and Western blot. (B) Whole flat mount of RPE. OAβ disrupted RPE morphology. However, RPE were less damage in the ELVs treatment group as well as PBS, ELVs alone did non induce changes. (C) Evaluation the OAβ effects on retina and RPE by OCT. (D) The thickness of PRC was thin in the OAβ injected group. OAβ cause the cell death of PRC, as the thinner in OCT measurement. (E) RPE gene expression after OAβ (1-42) injection and treatment with ELVs. 3 days after injection, the RNAs from RPE were isolated, reverse transcribed into cDNA and subjected to RT-PCR with different primers. Genes in the same functional group were plotted in the same chart, including senescence- and AMD-related genes (E), and collagenases, gelatinase, stromelysins and others matrix metalloproteinases (MMP) (F) and autophagy (G). (H) p16INK4a western blots of RPE/Choroid. […] (I) Retina gene expression after OAβ (1-42) injection and treatment with ELVs. OAβ activates apoptosis genes in the retina. […] (*P<0.05, using student t-test comparison).
All animal experiments were performed according to ARVO Statement for the Use of Animals in Ophthalmic and Vision Research, and the protocol was approved by LSU Health New Orleans' Institutional Animal Care and Use Committee (IACUC). 6-month-old 5×FAD mice (stock number: 34848-JAX, The Jackson Laboratory, Bar Harbor, Me., USA), co-overexpress FAD mutant forms of human amyloid precursor protein (the Swedish mutation: K670N, M671L; the Florida mutation: I716V; and the London mutation: V7171) and presenilin 1 (PS1, encoded by Psen1: M146L, L286V) transgenes under transcriptional control of the neuron-specific mouse Thy1 promoter. 5×FAD mice were hemizygotes with respect to the transgenes and non-transgenic WT littermates. Genotyping was performed by PCR of tail DNA. All analyses were carried out blind with respect to the mice genotype. For the subretinal injection, 6-month-old C57BL/6J mice were anesthetized by an intraperitoneal injection of ketamine/xylazine, pupils dilated with 1.0% tropicamide (Akorn, Ill., USA); and 0.5% Proparacaine Hydrochloride (Akorn) was applied for topical anesthesia. Eyes were punctured with a 30-gauge needle between the corneoscleral junction and the ora serrata into the vitreous cavity without disturbing the lens. Compounds were delivered to the subretinal region using a 33-gauge blunt needle attached to a 5p.1 Hamilton syringe (Hamilton Company, Reno, Nev., USA) under a dissecting microscope. Non-injected mice were used as negative control while the PBS injected mice were used for sham. […]

[3] = tested on: human RPE cells; assay: Oxidative-stress and Erastin induced cell death in human RPE cells; format: cell-based
[4] = tested on: RPE single-cells; assay: UOS-induced transcriptome changes in RPE single-cells; format: cell-based
Excerpt: Dots in box plots represent expression of the gene for a single RPEC (total of 96 per sample). P<0.001 (***), P<0.01 (**), One-way Anova, with Post-Hoc Tukey HSD test for multiple comparisons.

[5] = methyl ester or sodium salt; administered 1 hour following 2 hours of ischemia; cited from earlier work
[6] = tested on: primary human RPE cells; assay: Primary human RPE cells treated with 10 μM OAβ +/- ELVs (SA-β-Gal staining, qPCR); format: cell-based; conditions: 3 days qPCR, 7 days staining
Procedure: (A) In vitro experimental design: Primary human RPE cells were treated with 10 μM OAβ+/−ELVs. After 3 days, RNA was isolated and qPCR analyzed. After 7 days, cells were subjected to β-Galactosidase staining. (B) Live cell images under bright field microscopy after 7 days. (C) β-Gal staining+/−ELVs. Quantitation of % for the β-Gal positive cells. ELVs decreased positive senescent cells. (D) Gene transcription of senescence, AMD-related and autophagy genes after OAβ (1-42) exposure+/−ELVs. (*P <0.05, student t-test).
OAβ toxicity is counteracted by ELVs in primary hRPE. (A) Primary hRPE cells were treated with 10 μM OAβ with or without adding ELVs. After 3 days, the total RNA was isolated and q-PCR analyzed. After 7 days, cells were subjected to β-Galactosidase staining. (B) Live cell images of primary hRPE under bright field microscope imaging after 7 days. (C) β-Galactosidase staining of primary hRPE, +/−ELVs. Quantitation of % for the β-Gal positive cells. ELVs decreased positive senescent cells. […]
Cells were visualized using SA-β-Gal staining kit (Cat 9860, Cell Signaling Technology, MA, USA). […] Pictures were taken under brightfield microscope (Nikon Eclipse TS100) 200× magnification after the development of blue color, and cells counted in 10 different random fields per well. […]

[7] = co-injected with OAβ subretinally, then topical ELV, day 7

For CC/C=C\C[C@H](O)\C=C/C=C/C=C/[C@H](O)C/C=C\C/C=C\CCCCCCCCCCCCCCC(=O)[O-].[Na+] [ELV-34-6 Na, sodium (16Z,19Z,22R,23E,25E,27Z,29S,31Z)-22,29-dihydroxytetratriaconta-16,19,23,25,27,31-hexaenoate], the “spiking activity of hypothalamic slices (MEA)” value [1] was “synchronous spiking is restored”.

For CC/C=C\C[C@H](O)\C=C/C=C/C=C/[C@H](O)C/C=C\C/C=C\CCCCCCCCCCCCC(=O)O [ELV-N-32], the “PRC degeneration / ONL after ELV injected alone” value ([2]; ELV alone, no OAβ, subretinal) was “did not yield PRC degeneration”, the “PRC protection (PRC layer, OCT)” value [2, 7] was “protection of PRC” and the “RPE morphology (ZO-1 whole flat mount)” value [2, 7] was “restoration of RPE morphology”. The “p16INK4a protein (western blot of RPE/Choroid)” value ([2]; elevated by OAβ injection, day 7) was “down regulated”, the “OAβ-activated senescence program (p16INK4a, MMP1, p53, p21, p27, Il-6, SASP secretome) followed by RPE and PRC demise” value (from here on “OAβ-activated senescence program”) [2] was “blunt these events and elicit protection to both cells” and the “OAβ-activated senescence program” value ([2]; listed as ELV 32) was “downregulatory mediators of OAβ-evoked senescence”. For the same compound, the “OAβ-activated senescence program” value ([2]; listed as elovanoid 32) was “blunt these events and elicits protection”, the “oxidative-stress and Erastin induced cell deaths” value [3] was “counteracted” and the “UOS-induced up-regulation of pro-inflammatory transcriptome and down-regulation of pro-homeostatic pathways” value [4] was “suppress these changes”. For the same compound, the cell survival [5] was “promoted cell survival”, the infarct volumes [5] was “reduced infarct volumes” and the neurovascular unit disruption [5] was “diminished neurovascular unit disruption”. The “OAβ effects: RPE cell morphology, SASP (SA-β-Gal), senescence, AMD, MMP and autophagy gene expression” value [6] was “reverted these effects”.

With CC/C=C\C[C@H](O)\C=C/C=C/C=C/[C@H](O)C/C=C\C/C=C\CCC(=O)O [NPD1, 10R,17S-dihydroxy-docosa-4Z,7Z,11E,13E,15Z,19Z-hexaenoic acid, reference compound] the “oxidative-stress and Erastin induced cell deaths” value [3] was “counteracted” and the “UOS-induced up-regulation of pro-inflammatory transcriptome and down-regulation of pro-homeostatic pathways” value [4] was “suppress these changes”.

In the case of “OAβ: oligomerized Aβ (1-42) peptide, used as cytotoxic stressor [reference compound]”, the “PRC layer thickness (OCT)” value ([2]; OAβ-injected retina, non-injected retina 105 μm) was 35 μm.
